Here are results for ten compounds from patent US20210379046A1, “Methods of Treating Diseases Using Kinase Modulators” (Memorial Sloan Kettering Cancer Center, priority 2018, published 2021).

One series relates to TPC1 cells. Briefly: ADCC chromium-51 release assay with ESK1 and human PBMCs on inhibitor-pretreated TPC1 cells. The class given is cell-based. The conditions noted are these: TPC1 pretreated 72 hrs with 100 nM trametinib, at 3 or 4 E:T ratios. The method, then: Peripheral blood mononuclear cells were derived from healthy donors by Ficoll density centrifugation after receiving informed consent on Memorial Sloan Kettering Institutional Review board-approved protocols. TPC1 cells treated with RET inhibitor drugs and DMSO control were labeled with chromium-51 and co-cultured with PBMCs and ESK (or its isotype control, hIgG1). Different E:T ratios were used and after 5 hrs of incubation at 37° C., the supernatant was harvested and chromium levels were measured by Chromium-51 release assay (Perkin Elmer). Higher chromium levels indicated higher levels of cytotoxicity.
After the addition of ESK and peripheral blood mononuclear cells for 5 hrs, chromium release was measured.
For each experiment reported, fresh peripheral blood mononuclear cells were derived from a healthy donor by Ficoll density centrifugation after receiving informed consent on Memorial Sloan Kettering Institutional Review Board-approved protocols. […] Cells were then labeled with 1 uCi/well chromium-51 for 1 hr at 37° C. […] Different effector:target ratios were used and after 5 hrs of incubation at 37° C., the supernatant was harvested and chromium levels were measured through standard chromium-51 release assay on a Top Count machine (Perkin Elmer).

The subject of series [1] is JAK signaling (pSTAT1) in Karpas299 and TPC1 cells. Put plainly: IFN-γ stimulation and ruxolitinib control in Karpas299 and TPC1 cells. The class given is cell-based, human. The method, then: Cells were harvested and stained with anti-HLA-A02 antibody (BB7-FITC) for flow cytometry. […] (B) Karpas299 and TPC1 cells were treated with DMSO, IFN-γ, or IFN-γ and RUX for 72 hours.
Supernatant media were harvested after treatment and analyzed by the Luminex device (Luminex Corporation, Austin, Tex.) for relevant cytokine secretion. […] On the left side of each panel is data after 24 hours. On the right side of each panel is data after 48 hours. […] The data points shown in this figure are in pairs for each condition. The data point pairs for each time point are, from left to right: DMSO, Rux, Alec, IFNg, and IFNg+Rux.

Another series concerns Human T cells. Put plainly: IFN-gamma ELISpot of peptide stimulated T cells. The class given is cell-based. The conditions noted are these: T cells of HLA-A*02:01 positive healthy donors, autologous CD14+ cells presenting peptide. The source says: Peripheral blood mononuclear cells were again derived from healthy donors after receiving informed consent (see above). T cells were isolated by Ficoll density centrifugation and stimulated with pools of peptides that were selected from the population of: (1) new peptides that appeared after RET inhibitor treatment, (2) peptides found on cells before RET inhibitor treatment, and (3) irrelevant peptides not found on the target cells. CD14^+ cells were isolated from PBMCs by negative immunomagnetic cell separation using an isolation kit (Miltenyi Biotec). CD14 cells were used for stimulation in week one and autologous dendritic cells were generated for use thereafter. The purity of the cells was always more than 98%. Monocyte-derived dendritic cells (DCs) were generated from CD14+ cells, by culturing the cells in RPMI 1640 medium supplemented with 1% AP, 500 units/mL recombinant IL-4, and 1,000 units/mL GM-CSF. On days 2 and 4 of the incubation, fresh medium with IL-4 and GM-CSF was either added or replaced half of the culture medium. On day 6, maturation cytokine cocktail was added (IL-4, GM-CSF, 500 IU/mL IL-1, 1,000 IU/mL IL-6, 10 ng/ml TNF-α, and 1 ug/mL PGE-2).
An interferon-gamma ELISpot was performed at the beginning of week three. For this HA-Multiscreen plates (Millipore) were coated with 100 uL of mouse anti-human IFN-gamma antibody (10 ug/mL; clone 1-D1K, Mabtech #3420-2A) in PBS, incubated overnight at 4° C., washed with PBS to remove unbound antibody, and blocked with RPMI 1640/10% autologous plasma (AP) for 2 h at 37° C. Purified CD3^+ T cells (>98% pure) were plated with either autologous CD14^+ (10:1 E:APC ratio) or autologous DCs (30:1 E:APC ratio), Various test peptides were added to the wells at 20 ug/mL. Negative control wells contained. APCs and T cells without peptides or with irrelevant peptides. Positive control wells contained T cells plus APCs plus 20 ug/mL phytohemagglutinin (PHA, Sigma). All conditions were done in triplicates. Microtiter plates were incubated for 20 h at 37° C. and then extensively washed with PBS/0.05% Tween and 100 uL/well biotinylated detection antibody against human IFN-γ (2 ug/mL; clone 7-B6-1; Mabtech) was added. Plates were incubated for an additional 2 h at 37° C. and spot development was done as described. Spot numbers were read and determined by Zellnet Consulting In. T cell killing of target cells was measured at week five as described in the section of ADCC above.

A further series has as its system SKOV3 cells. Put plainly: Surface HLA on SKOV3 cells. The format is cell-based, human. The method, then: (§1) If adherent cells, they were seeded one day before treatment.
Experiments in this Example were performed as described in Section 6.1.2.

Another series concerns Karpas 299 cells. Put plainly: Flow cytometry of cell surface HLA and checkpoint ligands on Karpas 299 cells. The class given is cell-based, human. The conditions noted are these: for cell surface HLA-A,B,C: Karpas 299, 72 hrs, increasing concentrations. The method, then: as §1
For orientation: Flow cytometry measures light scatter and fluorescence of single cells or particles in a stream.

Another series has as its system SUDHL-1 cells. Briefly: Flow cytometry of cell surface HLA on SUDHL-1 cells. The conditions noted are these: SUDHL-1, 72 hrs, increasing concentrations. The format is cell-based, human. The method, then: as §1
Another series relates to pERK in Karpas 299 cells. Put plainly: Western blot of pERK in Karpas 299 cells. The class given is cell-based, human. The conditions noted are these: Karpas 299, 3 hrs. The method, then:
(§2) Cells were seeded in a 60 mm dish or 6 well plates. After the appropriate time point, cells were harvested and lysed and protein was quantified by a Lowry assay (Bio-Rad DC Protein Assay; #5000116). Protein levels were normalized and run on SDS PAGE gels (Bio-Rad). Protein was transferred to a nitrocellulose membrane using semi-dry transfer. Membrane was blocked and incubated with respective antibodies. When needed, secondary antibodies with HRP were incubated for 1 hr.
(§3) Cells were seeded in a 60 mm dish or 6 well plates. After the appropriate time point, cells were harvested, lysed in RIPA buffer (Thermo Instruments) and protein concentration was quantified by a Lowry assay (using the Bio-Rad DC Protein Assay; #5000116 on a Spectramax device from Molecular Devices). Protein loading levels were equalized per lane and separated on SDS gels (Bio-Rad). Protein was transferred to a nitrocellulose membrance using semi-dry transfer (BioRad). Membranes were blocked with Omniblock (American Bio) and incubated with respected antibodies. When needed, secondary antibodies with HRP were incubated for 1 hr.

The test system of a further series is pERK in SUDHL-1 cells. Put plainly: Western blot of pERK in SUDHL-1 cells. The format is cell-based, human. The conditions noted are these: SUDHL-1, 3 hrs. The method, then: as §2, §3
Background: In western blotting, separated proteins are transferred to a membrane and probed.

In a further series the test system is pERK in H2228 cells. Briefly: Western blot of pERK in H2228 cells. The class given is cell-based, human. Particulars: H2228, 100 nM. The method, then:
as §2, §3

The next series relates to Karpas 299 tumors. Put plainly: Karpas 299 subcutaneous tumors in mice, tumor HLA and PD-L1 by flow cytometry. The class given is in vivo. Particulars: Karpas 299 tumors, daily oral gavage. On the procedure: Female NSG (NOD.Cg-Prkdc^scidIl2rg^tm1Wj1/SzJ) and NRG (NOD.Cg-Rag1^tm1MomIl2rg^tm1Wj1/SzJ) mice were purchased from the Jackson Laboratory or MSKCC breeding facility at 5-10 weeks old. For RET and ALK experiments, 2.5-6×10^6 tumor cells were subcutaneously injected into the flank of mice and when tumors were palpable, mice were treated daily with drug or vehicles through oral gavage. At day 7, tumors were harvested and flow cytometry was run to determine effect of inhibitors on HLA and PD-L1 on the tumor cells.
The highly immunodeficient NRG (NOD-Rag1null IL2rgnull) mice were subcutaneously injected with 2.5×10^6 luciferase tagged TPC1 cells in their right flank. […] Afterwards, cells were immediately harvested and stained with antibodies against HLA-A*02:01 and HLA-ABC.
All animal experiments were conducted in accordance with and the approval of the MSKCC IACUC (Institutional Animal Care and Use Committee) protocols. Female NSG (NOD. Cg-Prkdc^scidIl2rg^tm1Wj1/SzJ) and NRG (NOD.Cg-Rag1^tm1MomIl2rg^tm1Wj1/SzJ) mice were purchased from the Jackson Laboratory at 5-10 weeks old. For experiments in vivo with RET and ALK, 2.5-6×10^6 tumor cells in PBS were subcutaneously injected into the flank of mice. When tumors were palpable (2-3 mm), mice were treated daily with drugs or vehicles through oral gavage of drugs in 200 ul of water. At day 4 or 7, tumors were harvested and flow cytometry was conducted to determine the effect of inhibitors on HLA and PD-L1 on the tumor cells. […] TPC1 cells were transduced with luciferase and GFP on an SFG vector and this allowed gating of the tumor cells in flow cytometry.

Series [2] deals with HLA-A, beta-2-microglobulin, TAP1, TAP2 in Karpas 299 and SUDHL-1 cells. Put plainly: Western blot and qPCR of HLA and antigen processing machinery in ALCL lines. The class given is cell-based, human. The conditions noted are these: for HLA and antigen processing machinery transcript levels (qPCR): Karpas 299 and SUDHL-1, 48 hrs. The method, then:
as §2, §3
Data were normalized to baseline expression of each analyzed gene separately.

The test system of series [3] is Karpas 299 and SUDHL-1 cells. Put plainly: Sensitivity of ALCL cells to ALK inhibitors. The class given is cell-based, human.
In another series the test system is TT cells. Briefly: Flow cytometry of cell surface HLA on TT cells. The class given is cell-based, human. Particulars: 72 hrs. The method, then:
as §1

The next series relates to LC-2/ad cells. Briefly: Flow cytometry of cell surface HLA on LC-2/ad cells. The class given is cell-based, human. The conditions noted are these: 72 hrs. On the procedure:
as §1

“Also recorded” adds a separate entry of the source.

For `CC(=O)Nc1cccc(-n2c(=O)n(C3CC3)c(=O)c3c(Nc4ccc(I)cc4F)n(C)c(=O)c(C)c32)c1` [trametinib], the “improved lysis by ESK1” value with TPC1 cells is listed as “about 10%”.

For the compound “IFNγ: interferon gamma used as positive control”, the “phosphorylated STAT1 (pSTAT1)” value in [1] (Karpas299 and TPC1, IFN-γ or IFN-γ and RUX, 72 hours) was “upregulated in both cell lines”. In series [1] (Karpas299 and TPC1, IFNγ 100 ng/ml, ruxolitinib 1000 nm), the “IL4 and IL6 secretion” value is “increased both IL4 and IL6”.

Turning to “ILDKKVEKV (control peptide) [ILDKKVEKV (SEQ ID NO:7), control peptide found before drug treatment on TPC1 cells]”, the “T cell mediated IFN gamma response (ELISpot)” value with Human T cells is “No response”.

For `CS(=O)(=O)CCNCc1ccc(-c2ccc3ncnc(Nc4ccc(OCc5cccc(F)c5)c(Cl)c4)c3c2)o1` [lapatinib], the HLA upregulation result in the series on SKOV3 cells was “upregulated HLA”.

For the compound “TYLEKAIKI (control peptide) [TYLEKAIKI (SEQ ID NO:6), control peptide found before drug treatment on TPC1 cells]”, the “T cell mediated IFN gamma response (ELISpot)” value in the series on Human T cells was “No response”.

As for `C[C@@H](Oc1cc(-c2cnn(C3CCNCC3)c2)cnc1N)c1c(Cl)ccc(F)c1Cl` [crizotinib], the “surface HLA-E levels” value with Karpas 299 cells (Karpas 299) is “did not change”. In addition, the “HLA levels increase compared to control cells treated with DMSO” value with Karpas 299 cells (Karpas 299, 1 uM, 72 hour incubation) is 4 fold. For the same compound, the “cell surface HLA-A,B,C” value in the series on Karpas 299 cells is recorded as “increased levels of surface HLA-A,B,C; also recorded: increased levels of surface HLA class I complexes; also recorded: increases in cell surface HLA”; in the series on SUDHL-1 cells, “increased surface HLA in a dose-related manner; also recorded: increases in cell surface HLA”. Further, the pERK levels result with pERK in Karpas 299 cells is given as “dose-related reduction of pERK at 3 hours; also recorded: dose-related, reduction of pERK at 3 hours”; in the series with pERK in SUDHL-1 cells it was “inhibited pERK expression”; in the series with pERK in H2228 cells it was “did not change pERK levels”; with pERK in H2228 cells (listed as Crizotinib) it was “does not decrease pERK levels”. The “tumor PD-L1 levels in vivo” value in the series on Karpas 299 tumors is listed as “PD-L1 levels decreased with increasing doses; also recorded: PD-L1 levels decreased in vivo”. In addition, the “tumor cell surface HLA-A,B,C in vivo” value in the series with Karpas 299 tumors was “increased slightly in a dose-response manner, though not all mice responded; also recorded: increased modestly in a dose-dependent manner”. Also, in series [2], the “HLA and antigen processing machinery transcript levels (qPCR)” value is “showed increases in HLA and antigen processing machinery transcript levels”.

For the compound “ILQAHLHSL (control peptide) [ILQAHLHSL (SEQ ID NO:8), control peptide found before drug treatment on TPC1 cells]”, in the series with Human T cells, the “T cell mediated IFN gamma response (ELISpot)” value is reported as “No response”.

`Cc1cc(Nc2ncc(Cl)c(Nc3ccccc3S(=O)(=O)C(C)C)n2)c(OC(C)C)cc1C1CCNCC1` [ceritinib]: the “cell surface HLA-A,B,C” value with Karpas 299 cells and in the series on SUDHL-1 cells was “cell surface HLA increased in both cell lines in a dose-dependent manner” in each case. Further, the pERK levels entry in the series on pERK in Karpas 299 cells is listed as “shut down pERK levels”; in the series on pERK in SUDHL-1 cells it was “shut down pERK levels”; with pERK in H2228 cells, “slightly decreased pERK levels”; with pERK in H2228 cells (listed as Ceritinib), “minimal changes in pERK levels; also recorded: decreased pERK levels very slightly”. Besides, the “HLA and antigen processing machinery transcript levels (qPCR)” value in series [2] is “Increase in RNA levels of HLA and antigen processing machinery”. Moreover, the “HLA-A and beta-2-microglobulin protein levels (western blot)” value in series [2] (Karpas 299 and SUDHL-1, 72 hrs) was “show increase in HLA-A and beta-2-microglobulin”. Further, the “sensitivity of cells to ceritinib compared with crizotinib” value in series [3] is “more sensitive to ceritinib than crizotinib, and died at lower concentrations”.

As for `COc1cc2ncnc(Oc3cccc(NC(=O)Nc4cc(C(C)(C)C(F)(F)F)on4)c3)c2cc1OC` [CEP-32496], the “surface HLA” value in the series on TT cells and in the series on LC-2/ad cells was “minimal effects on HLA upregulation; also recorded: Small changes in cell surface HLA” each time.

In the case of “GRKPPLLKK (irrelevant peptide) [GRKPPLLKK (SEQ ID NO:9), irrelevant peptide, negative control]”, the “T cell mediated IFN gamma response (ELISpot)” value in the series with Human T cells is “No response”.
